Experimental data: US20080125405A1, “Composition for treating or preventing olfactory disorder” (Samsung Life Public Welfare Foundation Samsung Medical …, priority 2006, published 2008)
Where two headings read alike, the source gives them in different places.

Legend:
[1] = tested on: olfactory epithelial cells; assay: Columnar arrangement grade of olfactory epithelial cells after 3-methylindole damage, H&E staining; type: in vivo, Sprague-Dawley rats; details: grade 1 (not arranged) to 3 (well arranged), drug 10 mg/kg oral daily
Procedure: (§1) To collect the olfactory tissues of the test group, the reference group and the control group, the test animals of the three groups were sacrificed on the fourth day, the seventh day, the fourteenth day and the twenty eighth day after the treatment with 3-methylindole. Six test animals were sacrificed each time.
(§2) H&E staining of the tissue obtained from Example 1-2 was performed by treating the paraffin block cut into a thickness of 4 μm via the above trimming and microtomy steps of Example 1-2 with a hematoxylin solution (Zymed, USA) and an eosin solution (eosin Y, Sigma, USA). More particularly, the H&E staining was performed as follows.
(§3) The paraffin block cut into a thickness of 4 μm as described in Example 1-2, i.e. the tissue specimen, was deparaffinized by repeating a xylene treatment cycle (dipping the tissue into 100% xylene twenty times) three times, was subjected to rehydration and staining with a hematoxylin solution for 5 minutes, and then was washed thoroughly with flowing water for 15 minutes. The washed tissue specimen was subjected to differential staining in 0.25% eosin solution for 40 seconds. After the differential staining, the tissue specimen was treated with an increasing amount of alcohol from a lower concentration to a higher concentration (i.e. 50%, 70%, 95% and 100% alcohol) for 1 hour at each concentration to further carry out dehydration. The dehydrated tissue specimen was passed through xylene three times and was encapsulated by covering it with a cover slide.
(§4) To observe damage to or recovery of the olfactory mucous membrane epithelia, the heights and arrangements of the epithelia in the test groups were compared to each other after carrying out H&E staining. To perform the comparison of the heights of the olfactory epithelia, the height of the olfactory epithelium in each test group was measured by taking a photograph of the olfactory mucous membrane at both upper sides of the nasal septum at a magnitude of 200×, wherein the average height of the olfactory mucous membrane epithelium was determined by using an Image J Program (NIH). Also, to perform the comparison of the heights of the olfactory epithelia, columnar arrangement corresponding to the arrangement of the olfactory epithelial cells in each test group was determined.
Herein, as the grade number increases, a higher degree of regeneration is made in the olfactory mucous membranes.
Additionally, columnar arrangement of the olfactory epithelial cells in each group was determined. The columnar arrangement of each group is shown in FIG. 3 as a grade evaluated according to the above criteria.

olfactory epithelium = assay: Height (thickness) of olfactory epithelium after 3-methylindole damage, H&E staining; type: in vivo, Sprague-Dawley rats; details: rats, 3-methylindole 150 mg/kg i.p., drug 10 mg/kg oral daily; for height of olfactory epithelium: time point not printed (first sampling, fourth day), mean±SD
Procedure: as §1, §2, §3, §4
After measuring the heights of the olfactory epithelia, statistical analysis of the results was performed by using the above mentioned Anova test with Bonferroni's correction.

olfactory receptor cells = details: grade 0 to 4, higher = more regeneration, drug 10 mg/kg oral daily
Procedure: As test animals, female white Sprague-Dawley rats (Orient Co., Korea) having a body weight of 100-150 g were used. […] The test animals were raised in raising chambers for one week.
The test animals in the test group and the reference group were subjected to intraperitoneal injection of 150 mg/kg (body weight of each test animal) of 3-methylindole (3-MI) so that their olfactory epithelia were damaged. […] To the test animals in the reference group, 10 mg/kg (body weight of each test animal) of a steroid formulation, i.e. prednisolone, dissolved in 1 cc of saline was orally administered according to the same protocol as the test group. Additionally, to the test animals in the control group, the same amount (1 cc) of saline was administered after the olfactory epithelia were damaged, according to the same protocol as the test group.
To observe the distribution of the olfactory receptor cells, immunoreactivity to protein gene product 9.5 (PGP 9.5) known to exist specifically in the olfactory nerve cells was investigated.
The immunohistological staining was performed by using a Histostain-Plus kit (Zymed, San Francisco, USA). The paraffin block cut into a thickness of 4 μm, i.e. the tissue specimen was positioned on a slide coated with poly-L-lysine and was subjected to rehydration by using a decreasing amount of alcohol gradually from 100% alcohol to distilled water. The rehydrated tissue specimen was introduced into heated 10 mM citrate buffer (pH 5.0, Sigma, USA) and was further heated in a microwave oven twice, for 5 minutes each time. Next, the heated tissue specimen was removed from the microwave oven, cooled in the 10 mM citrate buffer for 20 minutes, washed with distilled water, allowed to react with 0.05M Tris-HCl buffer (Tris buffered saline, TBS) containing 3% H2O2 added thereto for 20 minutes to remove the activity of the endogenous peroxidase, and then was washed with 0.05M Tris-HCl buffered saline three times. After removing the activity of the endogenous peroxidase, the washed tissue specimen was treated with 0.1% Triton X-100 (USB, Ohio, USA) for 15 minutes, and further washed with 0.05M Tris-HCl buffered saline three times. After the treatment with 0.1% Triton X-100, the washed tissue specimen was allowed to react with a blocking reagent (10% normal goat serum) for 30 minutes to inhibit non-specific antigen-antibody reactions. […]

[2] = fourteen days after 3-methylindole
[3] = seven days after 3-methylindole
[4] = twenty eight days after 3-methylindole

| Compound | average grade of columnar arrangement of olfactory epithelial cells ([1]; four days after 3-methylindole) | average grade of columnar arrangement of olfactory epithelial cells [1, 2] | average grade of columnar arrangement of olfactory epithelial cells [1, 3] | average grade of columnar arrangement of olfactory epithelial cells [1, 4] | thickness of olfactory epithelium (olfactory epithelium; [2]) | thickness of olfactory epithelium (olfactory epithelium; [3]) | height of olfactory epithelium (olfactory epithelium) | thickness of olfactory epithelium (olfactory epithelium; [4]) | average PGP 9.5 immunostaining grade (olfactory receptor cells; four days after 3-methylindole) | average PGP 9.5 immunostaining grade (olfactory receptor cells; [2]) | average PGP 9.5 immunostaining grade (olfactory receptor cells; [3]) | average PGP 9.5 immunostaining grade (olfactory receptor cells; [4]) |
| --- | --- | --- | --- | --- | --- | --- | --- | --- | --- | --- | --- | --- |
| CC(C)c1c(C(=O)Nc2ccccc2)c(-c2ccccc2)c(-c2ccc(F)cc2)n1CC[C@@H](O)C[C@@H](O)CC(=O)O [atorvastatin] | 1.0±0.5 | 1.7±0.7 | 1.7±0.3 | 2.8±0.5 | 58.6±16.3 μm | 56.1±26.9 μm | 17.4±15.1 μm | 63.9±20.2 μm |  |  |  |  |
| C[C@]12C=CC(=O)C=C1CC[C@@H]1[C@@H]2[C@@H](O)C[C@@]2(C)[C@H]1CC[C@]2(O)C(=O)CO [prednisolone] | 0.9±0.3 | 1.8±0.5 |  | 2.5±0.4 | 60.5±11.6 μm | 21.1±13.4 μm | 9.5±4.7 μm | 72.2±21.8 μm | 0.5±0.67 | 2.42±1.38 | 0.92±0.79 | 1.75±1.22 |
